Measurements taken from US12600732B2, “Bifunctional compounds for degrading BTK via ubiquitin proteosome pathway” (NURIX THERAPEUTICS, INC., priority 2019, dated 2026).
Where two headings read alike, the source gives them in different places.

Legend:
[1] = test system: B cell receptor (BCR) signaling; experiment: B cell activation assay (flow cytometry), mouse B cells; assay type: cell-based; conditions: treatment 4 h, IgM stimulation 18 h
Method in brief: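 Compound was present throughout BCR stimulation. Live single lymphocytes were gated into CD20+CD3− B cells and CD3+CD20− T cells by flow cytometry. Geometric MFI of CD86 and CD69 was measured per population, with unstimulated samples defining baseline activation.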

[2] = PK data for BTK CTMs (in vivo plasma concentrations); conditions: Mouse Balb/c; for Vd: read-out: Volume of Distribution
Source text: The present example evaluates in vivo plasma concentrations of BTK CTMs to develop PK-PD-efficacy relationship and predict human exposure.

[3] = target: T1, TEC kinase (Homo sapiens, UniProt P42680); experiment: TEC kinase degradation in K562 cells (western blot); assay type: cell-based; conditions: FIGS. 13A-13D; for effects on TEC kinase levels: four hours, 0.026-2000 nM, western blot
T1 construct: endogenous in cells; host or cells: K562
T1 sequence (P42680 1-631): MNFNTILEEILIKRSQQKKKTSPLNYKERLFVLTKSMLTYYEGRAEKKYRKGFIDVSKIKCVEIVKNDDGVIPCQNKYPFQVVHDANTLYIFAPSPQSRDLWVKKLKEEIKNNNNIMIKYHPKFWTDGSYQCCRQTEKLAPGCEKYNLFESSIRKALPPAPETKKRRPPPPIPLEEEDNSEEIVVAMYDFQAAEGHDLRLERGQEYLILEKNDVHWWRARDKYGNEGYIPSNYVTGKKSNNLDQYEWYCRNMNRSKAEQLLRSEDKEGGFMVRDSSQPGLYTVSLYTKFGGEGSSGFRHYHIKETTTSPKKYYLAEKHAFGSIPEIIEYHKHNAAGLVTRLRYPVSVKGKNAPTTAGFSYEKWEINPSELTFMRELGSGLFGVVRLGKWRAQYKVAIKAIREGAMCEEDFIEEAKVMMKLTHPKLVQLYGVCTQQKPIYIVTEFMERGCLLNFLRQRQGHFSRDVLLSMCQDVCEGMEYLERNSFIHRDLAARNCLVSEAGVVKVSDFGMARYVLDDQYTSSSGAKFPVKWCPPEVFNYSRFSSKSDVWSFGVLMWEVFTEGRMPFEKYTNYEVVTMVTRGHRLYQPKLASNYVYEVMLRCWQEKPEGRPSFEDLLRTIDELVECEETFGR
Description: To determine effects of BTK CTMs on TEC levels in cells, K562 cells were treated for four hours with CTMs at concentrations between 0.026-2000 nM. TEC levels in cell lysate was assessed by western blot.

[4] = test system: primary human T cells; experiment: T cell activation assay, CD25 and CD69 staining (flow cytometry); assay type: cell-based; conditions: for CD25 Staining Anti-CD3/Anti-CD28 Stimulation / CD69 Staining Anti-CD3/Anti-CD28 Stimulation: fold-change of response relative to baseline
Method in brief: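 Primary human T cells stimulated via TCR with anti-CD3/anti-CD28 in the presence of test compound. IL-2 secretion measured by ELISA; surface CD25 and CD69 by flow cytometry. Values are fold-change versus anti-CD3/anti-CD28 stimulation without compound.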

[5] = test system: Mino cells; experiment: Cell viability assay (CellTiter-Glo), Mino cells; assay type: cell-based
Source text: This example evaluates effects of CTM-mediated degradation on cell viability. […] Mino and Rec-1 are models of Mantle Cell Lymphoma, which is sensitive to IMiDs.

[6] = target: BTK (Homo sapiens, UniProt Q06187); experiment: BTK degradation (Total BTK HTRF) in Mino cells (Mantle Cell Lymphoma model); assay type: cell-based; design: endogenous in cells; host or cells: TMD8, Mino, Rec-1; conditions: treatment time 4 h
BTK, sequence (Q06187 whole entry): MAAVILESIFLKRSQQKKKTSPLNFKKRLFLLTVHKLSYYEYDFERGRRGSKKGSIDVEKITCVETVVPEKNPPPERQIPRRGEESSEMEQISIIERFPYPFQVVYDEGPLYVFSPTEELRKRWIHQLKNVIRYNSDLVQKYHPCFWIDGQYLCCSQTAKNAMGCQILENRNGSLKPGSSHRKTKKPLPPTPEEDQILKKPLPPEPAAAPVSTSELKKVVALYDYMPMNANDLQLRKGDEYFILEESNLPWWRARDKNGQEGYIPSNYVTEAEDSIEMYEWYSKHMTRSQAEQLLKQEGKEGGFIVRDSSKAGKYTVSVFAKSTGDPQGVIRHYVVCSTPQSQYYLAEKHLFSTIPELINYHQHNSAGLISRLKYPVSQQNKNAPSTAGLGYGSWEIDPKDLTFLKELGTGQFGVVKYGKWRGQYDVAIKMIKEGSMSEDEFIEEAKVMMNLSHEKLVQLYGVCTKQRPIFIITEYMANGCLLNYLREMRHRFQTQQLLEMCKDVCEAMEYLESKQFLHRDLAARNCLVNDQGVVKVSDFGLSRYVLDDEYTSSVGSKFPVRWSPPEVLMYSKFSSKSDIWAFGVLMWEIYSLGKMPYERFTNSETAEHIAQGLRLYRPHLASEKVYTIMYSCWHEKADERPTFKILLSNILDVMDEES
Description: BTK levels were determined using Cisbio Total-BTK HTRF (Homologous Time-Resolved Fluorescence) kit (63ADK064PEG) according to the manufacturer's protocol. Briefly, cells were incubated in 1× supplied lysis buffer for 30 minutes. In an opaque white low volume 96-well plate (Cisbio, 66PL96005), cell lysate was combined with two different specific BTK antibodies, one conjugated with Eu^3+-Cryptate FRET donor and one conjugated with d2 FRET acceptor. Assay controls include wells containing cell lysate with only the Eu^3+-Cryptate FRET donor antibody and wells containing both HTRF antibodies and lysis buffer without cells or control lysate provided by Cisbio. HTRF ratio was calculated as (acceptor signal at 665 nm/donor signal at 620 nm)×10^4. Background HTRF levels were determined from the control well containing the donor, but no acceptor, antibody. Background HTRF levels were subtracted from all samples. Readouts were reported as HTRF levels relative to HTRF levels of DMSO-treated cells. Four-parameter non-linear regressions were performed in GraphPad Prism 7.02 to obtain DC50 values.
BTK Degradation (Total BTK HTRF) at Four Hours in Mino Cells
This example evaluates the potency of CTMs in a model of Mantle Cell Lymphoma (MCL). To evaluate potential therapeutic indications, BTK CTMs were assayed in models of Mantle Cell Lymphoma as with the TMD8 cells (ABC-DLBCL) above. Tested CTMs had similar potencies for BTK degradation in the MCL cell lines (Mino and Rec-1) and TMD8 cells.

EC50 ([1]; read-out: CD69 EC50) | EC50 ([1]; read-out: CD86 EC50) | AUC ([2]; 1 mg/kg IV) | clearance ([2]; 1 mg/kg IV) | Vd ([2]; 1 mg/kg IV) | AUC ([2]; 10 mg/kg PO) | bioavailability ([2]; 10 mg/kg PO) | degradation of BTK compared with TEC [3] | effects on TEC kinase levels [3] | DC50 [6] | Compound | CD25 Staining Anti-CD3/Anti-CD28 Stimulation ([4]; 1.4 nM) | CD69 Staining Anti-CD3/Anti-CD28 Stimulation ([4]; 1.4 nM) | CD25 Staining Anti-CD3/Anti-CD28 Stimulation ([4]; 37 nM) | CD69 Staining Anti-CD3/Anti-CD28 Stimulation ([4]; 37 nM) | CD25 Staining Anti-CD3/Anti-CD28 Stimulation ([4]; 333 nM) | CD69 Staining Anti-CD3/Anti-CD28 Stimulation ([4]; 333 nM) | expression of CD25 and CD69 compared to baseline (anti-CD3/anti-CD28 stimulation alone) ([4]; primary human T cells) | EC50 ([5]; Homo sapiens, Mino cells, treatment time 72 h) | potency on cell viability compared with compound 130 ([5]; MCL cell lines (Mino and Rec-1)) | EMAX (% viable cells) ([5]; Mino cells, treatment time 72 h)
0.07 nM | 0.2 nM | 3.96 µM·h | 5.1 mL/min/kg | 0.68 L/kg | 2.9 µM·h | 7% | more potent degradation of BTK than TEC | mild to moderate effects |  | CN1CCN([C@@H]2CCCN(c3cnc(C(N)=O)c(Nc4ccc(C5CCN(CC6CCN(c7ccc8c(=O)n(C9CCC(=O)NC9=O)ccc8c7)CC6)CC5)cc4)n3)C2)C1=O (some centres unmarked) [Compound 72] |  |  |  |  |  |  |  |  |  | 
0.2 nM | 0.4 nM | 4.07 µM·h | 5.1 mL/min/kg | 0.69 L/kg | 4 µM·h | 10% | more potent degradation of BTK than TEC | mild to moderate effects | 0.56 nM | CN1CCN([C@@H]2CCCN(c3cnc(C(N)=O)c(Nc4ccc(C5CCN(C[C@H]6CCN(c7ccc8c(c7)C(=O)N(C7CCC(=O)NC7=O)C8=O)C6)CC5)cc4)n3)C2)C1=O (some centres unmarked) [Compound 44] | 1.25 | 1.21 | 0.86 | 0.85 | 0.52 | 0.60 | unchanged or decreased levels | 11.7 nM | more potent | 61%
